Measured values from ChEMBL document CHEMBL3727363, “Imidazothiadiazole derivatives as protease activated receptor 4 (PAR4) inhibitors for treating platelet aggregation” (2013).
Values belong to the molecule of their own block, whether it stands above or below them.

How the values were obtained:
[1] = biological target: T1, Proteinase-activated receptor 4 (Homo sapiens) (UniProt Q96RI0); experiment: Antagonist activity against PAR4 in washed human platelets assessed as inhibition of 5 nM alpha-thrombin-induced platelet aggregation pre-incubated for 5 mins before alpha-thrombin addition by optical aggregometry; type: functional
T1 sequence (whole entry): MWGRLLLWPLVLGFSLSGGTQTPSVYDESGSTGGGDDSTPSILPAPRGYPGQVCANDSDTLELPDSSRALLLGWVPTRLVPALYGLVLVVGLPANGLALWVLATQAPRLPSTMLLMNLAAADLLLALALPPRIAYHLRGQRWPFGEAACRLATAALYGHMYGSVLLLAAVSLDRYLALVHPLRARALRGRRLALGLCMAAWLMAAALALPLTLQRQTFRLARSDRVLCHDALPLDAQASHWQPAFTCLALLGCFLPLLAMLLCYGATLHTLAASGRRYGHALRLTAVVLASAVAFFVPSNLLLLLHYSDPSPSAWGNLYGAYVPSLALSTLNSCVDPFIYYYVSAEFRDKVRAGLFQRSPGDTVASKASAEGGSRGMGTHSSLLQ

[2] = biological target: T1, Proteinase-activated receptor 4 (Homo sapiens); experiment: Antagonist activity against PAR4 in washed human platelets assessed as inhibition of […] alpha-thrombin-induced platelet aggregation pre-incubated for 5 mins before alpha-thrombin addition by optical aggregometry; type: functional
[3] = biological target: T2, Proteinase-activated receptor 4 (Homo sapiens, UniProt Q96RI0); experiment: Antagonist activity against human PAR4 expressed in HEK293 cells assessed as reduction in H-Ala-Phe(4-F)-Pro-Gly-Trp-Leu-Val-Lys-Asn-Gly-NH2-induced intracellular calcium mobilization incubated for 30 mins before agonist addition by FLIPR assay; type: functional, cell-based
T2 sequence (Q96RI0 whole entry): T1 sequence (whole entry)

Cynomolgus monkey [4] = experiment: Antithrombotic activity in cynomolgus monkey model of electrolytic injury-induced carotid artery thrombosis assessed as reduction in thrombosis-induced occlusion by measuring thrombus weight at 10 mg/kg, po dosed 1 to 2 hrs before test; type: functional, Macaca fascicularis; set-up: scale not given: the % may be the effect or the level left
Cynomolgus monkey [5] = experiment: Antithrombotic activity in cynomolgus monkey model of electrolytic injury-induced carotid artery thrombosis assessed as reduction in thrombosis-induced occlusion by measuring thrombus weight at 0.4 mg/kg, po dosed 1 to 2 hrs before test; type: functional, Macaca fascicularis; set-up: scale not given: the % may be the effect or the level left
Cynomolgus monkey [6] = experiment: Antithrombotic activity in cynomolgus monkey model of electrolytic injury-induced carotid artery thrombosis assessed as reduction in thrombosis-induced occlusion by measuring thrombus weight at 2 mg/kg, po dosed 1 to 2 hrs before test; type: functional, Macaca fascicularis; set-up: scale not given: the % may be the effect or the level left

Structure (SMILES): CSc1nn2cc(-c3cc4c(C(F)(F)F)cc(C)nc4o3)nc2s1
IC50 [3]: 8.15 nM

Structure (SMILES): COc1nn2cc(-c3cc4ccc([N+](=O)[O-])cc4o3)nc2s1
IC50 [3]: 38.2 nM

Structure (SMILES): COc1cc(OCc2cccc(OCc3ccccc3)c2)c2cc(-c3cn4nc(OC)sc4n3)oc2c1
Activity (Cynomolgus monkey [4]): -38%
Activity (Cynomolgus monkey [5]): -9%
Activity (Cynomolgus monkey [6]): -38%

Continued, values first:

inhibition [1]: Dose-dependent effect
inhibition [2]: Dose-dependent effect
Structure (SMILES): COc1cc(OCc2ccccc2)c2cc(-c3cn4nc(OC)sc4n3)oc2c1

IC50 [3]: 5.49 nM
Structure (SMILES): COc1cc(OCc2cccc(OCc3ccc(OC)c(C)c3C)c2)c2cc(-c3cn4nc(OC)sc4n3)oc2c1

IC50 [3]: 11.1 nM
Structure (SMILES): COc1cccc2oc(-c3cn4nc(SC)sc4n3)cc12
